Biological target: T1, EED (Homo sapiens, UniProt O75530)
T1 construct: 2×10^5 Hela cells were injected into a 12-well plate; endogenous in cells; host or cells: HeLa
Assay: EED Proteolytic Activity Evaluation 2 (western blot, Hela cells)
Type: cell-based
Conditions: 1 nM, 10 nM, 100 nM and 1000 nM, 20 hours of treatment
Procedure: [Experiment 2] EED Proteolytic Activity Evaluation 2
In order to evaluate the EED proteolytic activity of the compound according to the present invention, an experiment was conducted as follows.
Specifically, 2×10^5 Hela cells were injected into a 12-well plate, and after 8 hours of stabilization, each well was treated with the example compounds to have final concentrations of 1 nM, 10 nM, 100 nM, and 1000 nM. One well was treated with the volume of DMSO contained in the sample corresponding to the highest concentration in the experimental group. After 20 hours of treatment, the cells were collected and lysed using 80 μl of SDS Lysis buffer (50 mM Tris pH8.0, 1% SDS, 1 mM EDTA, 0.5 mM PMSF, and protease inhibitor cocktail) and then sonication (30 sec on/59 sec off), 5 cycles) to prepare a cell lysate, followed by protein quantification through BCA, followed by Western blot, and the results are shown in Table 3. (Maximum EED degradation rate: A: >50%, B: 25-50%, C: <25%)

T1 sequence (O75530 whole entry): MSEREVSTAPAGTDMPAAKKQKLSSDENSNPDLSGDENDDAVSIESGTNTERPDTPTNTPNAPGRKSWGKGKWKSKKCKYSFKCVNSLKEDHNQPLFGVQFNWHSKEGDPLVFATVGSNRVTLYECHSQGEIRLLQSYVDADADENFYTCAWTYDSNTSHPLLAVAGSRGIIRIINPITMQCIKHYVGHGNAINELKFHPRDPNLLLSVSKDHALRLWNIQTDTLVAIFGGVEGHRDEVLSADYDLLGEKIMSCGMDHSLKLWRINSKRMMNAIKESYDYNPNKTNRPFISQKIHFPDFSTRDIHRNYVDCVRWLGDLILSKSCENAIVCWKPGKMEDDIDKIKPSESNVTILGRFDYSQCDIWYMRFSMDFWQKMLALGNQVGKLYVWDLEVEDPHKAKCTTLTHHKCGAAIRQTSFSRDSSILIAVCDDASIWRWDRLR

Row | SMILES | EED degradation rate (Maximum EED degradation rate)
1 | Cc1cccc(F)c1CN1C[C@H](c2ccc(N3CCN(C(=O)CC4CCN(C(=O)COc5cccc6c5C(=O)N(C5CCC(=O)NC5=O)C6=O)CC4)CC3)cc2)[C@@H](N(C)C)C1 (stereo partly drawn) [Example 143, 4-(2-(4-(2-(4-(4-((3S,4R)-4-(dimethylamino)-1-(2-fluoro-6-methylbenzyl)pyrrolidin-3-yl)phenyl)piperazin-1-yl)-2-oxoethyl)piperidin-1-yl)-2-oxoethoxy)-2-(2,6-dioxopiperidin-3-yl)isoindolin-1,3-dione] | A (A: >50%)
2 | Cc1cccc(F)c1CN1C[C@H](c2ccc(N3CCN(C(=O)CC4CCN(C(=O)CNc5cccc6c5C(=O)N(C5CCC(=O)NC5=O)C6=O)CC4)CC3)cc2)[C@@H](N(C)C)C1 (stereo partly drawn) [Example 144, 4-((2-(4-(2-(4-(4-((3S,4R)-4-(dimethylamino)-1-(2-fluoro-6-methylbenzyl)pyrrolidin-3-yl)phenyl)piperazin-1-yl)-2-oxoethyl)piperidin-1-yl)-2-oxoethyl)amino)-2-(2,6-dioxopiperidin-3-yl)isoindolin-1,3-dione] | A (A: >50%)
3 | Cc1cccc(F)c1CN1C[C@H](c2ccc(N3CCN(C(=O)CC4CCN(C(=O)CNc5ccc6c(c5)C(=O)N(C5CCC(=O)NC5=O)C6=O)CC4)CC3)cc2)[C@@H](N(C)C)C1 (stereo partly drawn) [Example 146, 5-((2-(4-(2-(4-(4-((3S,4R)-4-(dimethylamino)-1-(2-fluoro-6-methylbenzyl)pyrrolidin-3-yl)phenyl)piperazin-1-yl)-2-oxoethyl)piperidin-1-yl)-2-oxoethyl)amino)-2-(2,6-dioxopiperidin-3-yl)isoindolin-1,3-dione] | A (A: >50%)
4 | Cc1cccc(F)c1CN1C[C@H](c2ccc(N3CCN(C(=O)CCC4CCN(C(=O)COc5cccc6c5C(=O)N(C5CCC(=O)NC5=O)C6=O)CC4)CC3)cc2)[C@@H](N(C)C)C1 (stereo partly drawn) [Example 148, 4-(2-(4-(3-(4-(4-((3S,4R)-4-(dimethylamino)-1-(2-fluoro-6-methylbenzyl)pyrrolidin-3-yl)phenyl)piperazin-1-yl)-3-oxopropyl)piperidin-1-yl)-2-oxoethoxy)-2-(2,6-dioxopiperidin-3-yl)isoindolin-1,3-dione] | A (A: >50%)
5 | Cc1cccc(F)c1CN1C[C@H](c2ccc(N3CCN(C(=O)CCC4CCN(C(=O)CNc5cccc6c5C(=O)N(C5CCC(=O)NC5=O)C6=O)CC4)CC3)cc2)[C@@H](N(C)C)C1 (stereo partly drawn) [Example 149, 4-((2-(4-(3-(4-(4-((3S,4R)-4-(dimethylamino)-1-(2-fluoro-6-methylbenzyl)pyrrolidin-3-yl)phenyl)piperazin-1-yl)-3-oxopropyl)piperidin-1-yl)-2-oxoethyl)amino)-2-(2,6-dioxopiperidin-3-yl)isoindolin-1,3-dione] | B (B: 25-50%)
6 | Cc1cccc(F)c1CN1C[C@H](c2ccc(N3CCN(CCC4CCN(C(=O)COc5ccc6c(c5)C(=O)N(C5CCC(=O)NC5=O)C6=O)CC4)CC3)cc2)[C@@H](N(C)C)C1 (stereo partly drawn) [Example 150, 5-(2-(4-(2-(4-(4-((3S,4R)-4-(dimethylamino)-1-(2-fluoro-6-methylbenzyl)pyrrolidin-3-yl)phenyl)piperazin-1-yl)ethyl)piperidin-1-yl)-2-oxoethoxy)-2-(2,6-dioxopiperidin-3-yl)isoindolin-1,3-dione] | A (A: >50%)
7 | Cc1cccc(F)c1CN1C[C@H](c2ccc(N3CCN(CCC4CCN(C(=O)COc5cccc6c5C(=O)N(C5CCC(=O)NC5=O)C6=O)CC4)CC3)cc2)[C@@H](N(C)C)C1 (stereo partly drawn) [Example 151, 4-(2-(4-(2-(4-(4-((3S,4R)-4-(dimethylamino)-1-(2-fluoro-6-methylbenzyl)pyrrolidin-3-yl)phenyl)piperazin-1-yl)ethyl)piperidin-1-yl)-2-oxoethoxy)-2-(2,6-dioxopiperidin-3-yl)isoindolin-1,3-dione] | A (A: >50%)
8 | Cc1cccc(F)c1CN1C[C@H](c2ccc(N3CCN(CCC4CCN(c5ccc6c(c5)C(=O)N(C5CCC(=O)NC5=O)C6=O)CC4)CC3)cc2)[C@@H](N(C)C)C1 (stereo partly drawn) [Example 154, 5-(4-(2-(4-(4-((3S,4R)-4-(dimethylamino)-1-(2-fluoro-6-methylbenzyl)pyrrolidin-3-yl)phenyl)piperazin-1-yl)ethyl)piperidin-1-yl)-2-(2,6-dioxopiperidin-3-yl)isoindolin-1,3-dione] | A (A: >50%)

Continued, values first:

Row | EED degradation rate (Maximum EED degradation rate) | SMILES
9 | B (B: 25-50%) | Cc1cccc(F)c1CN1C[C@H](c2ccc(N3CCN(C(=O)CC4CCN(C(=O)COc5ccc6c(c5)C(=O)N(C5CCC(=O)NC5=O)C6=O)CC4)CC3)cc2)[C@@H](N(C)C)C1 (stereo partly drawn) [Example 145, 5-(2-(4-(2-(4-(4-((3S,4R)-4-(dimethylamino)-1-(2-fluoro-6-methylbenzyl)pyrrolidin-3-yl)phenyl)piperazin-1-yl)-2-oxoethyl)piperidin-1-yl)-2-oxoethoxy)-2-(2,6-dioxopiperidin-3-yl)isoindolin-1,3-dione]
10 | B (B: 25-50%) | Cc1cccc(F)c1CN1C[C@H](c2ccc(N3CCN(C(=O)CCC4CCN(C(=O)COc5ccc6c(c5)C(=O)N(C5CCC(=O)NC5=O)C6=O)CC4)CC3)cc2)[C@@H](N(C)C)C1 (stereo partly drawn) [Example 147, 5-(2-(4-(3-(4-(4-((3S,4R)-4-(dimethylamino)-1-(2-fluoro-6-methylbenzyl)pyrrolidin-3-yl)phenyl)piperazin-1-yl)-3-oxopropyl)piperidin-1-yl)-2-oxoethoxy)-2-(2,6-dioxopiperidin-3-yl)isoindolin-1,3-dione]
11 | A (A: >50%) | Cc1cccc(F)c1CN1C[C@H](c2ccc(N3CCN(CCC4CCN(C(=O)CNc5cccc6c5C(=O)N(C5CCC(=O)NC5=O)C6=O)CC4)CC3)cc2)[C@@H](N(C)C)C1 (stereo partly drawn) [Example 152, 4-((2-(4-(2-(4-(4-((3S,4R)-4-(dimethylamino)-1-(2-fluoro-6-methylbenzyl)pyrrolidin-3-yl)phenyl)piperazin-1-yl)ethyl)piperidin-1-yl)-2-oxoethyl)amino)-2-(2,6-dioxopiperidin-3-yl)isoindolin-1,3-dione]
12 | A (A: >50%) | Cc1cccc(F)c1CN1C[C@H](c2ccc(N3CCN(CCC4CCN(c5cccc6c5C(=O)N(C5CCC(=O)NC5=O)C6=O)CC4)CC3)cc2)[C@@H](N(C)C)C1 (stereo partly drawn) [Example 153, 4-(4-(2-(4-(4-((3S,4R)-4-(dimethylamino)-1-(2-fluoro-6-methylbenzyl)pyrrolidin-3-yl)phenyl)piperazin-1-yl)ethyl)piperidin-1-yl)-2-(2,6-dioxopiperidin-3-yl)isoindolin-1,3-dione]

Reference: patent US20220105188A1, “TARGET PROTEIN EED DEGRADATION-INDUCING DEGRADUCER, PREPARATION METHOD THEREOF, AND PHARMACEUTICAL COMPOSITION FOR PREVENTING OR TREATING DISEASES RELATED TO EED, EZH2, OR PRC2, COMPRISING SAME AS ACTIVE INGREDIENT” (KOREA RESEARCH INSTITUTE OF CHEMICAL TECHNOLOGY, priority 2019, published 2022)
